Source: BigSolDB 2.1

O=C(O)Cc1ccccc1Cl
solubility (mole fraction)
Conditions | 273.15 K | 278.15 K | 283.15 K | 288.15 K | 293.15 K | 298.15 K | 303.15 K | 308.15 K | 313.15 K | 318.15 K
in 2-butanone | 0.254 | 0.282 | 0.315 | 0.351 | 0.389 | 0.426 | 0.462 | 0.496 | 0.528 | 0.567
in acetone | 0.209 | 0.225 | 0.242 | 0.261 | 0.281 | 0.303 | 0.326 | 0.352 | 0.38 | 0.412
in acetonitrile | 0.0582 | 0.0738 | 0.0925 | 0.114 | 0.139 | 0.168 | 0.199 | 0.234 | 0.272 | 0.314
in cyclohexane | – | – | 0.00197 | 0.00263 | 0.00346 | 0.00454 | 0.00601 | 0.00799 | 0.0107 | 0.0145
in ethyl acetate | 0.175 | 0.193 | 0.214 | 0.237 | 0.258 | 0.284 | 0.312 | 0.342 | 0.372 | 0.407
in ethylbenzene | 0.0217 | 0.0278 | 0.0348 | 0.0437 | 0.0542 | 0.0678 | 0.0853 | 0.106 | 0.132 | 0.165
in isobutanol | 0.15 | 0.172 | 0.199 | 0.226 | 0.256 | 0.288 | 0.322 | 0.357 | 0.394 | 0.433
in isopropanol | 0.18 | 0.206 | 0.235 | 0.266 | 0.298 | 0.336 | 0.369 | 0.407 | 0.446 | 0.486
in n-butanol | 0.142 | 0.164 | 0.19 | 0.217 | 0.247 | 0.28 | 0.314 | 0.349 | 0.387 | 0.425
in n-propanol | 0.16 | 0.184 | 0.21 | 0.237 | 0.268 | 0.299 | 0.332 | 0.368 | 0.405 | 0.446
in toluene | 0.0241 | 0.0307 | 0.0388 | 0.0491 | 0.0617 | 0.0778 | 0.0975 | 0.122 | 0.153 | 0.191
in water | 0.000141 | 0.000186 | 0.000243 | 0.000311 | 0.000394 | 0.000506 | 0.000645 | 0.000821 | 0.00105 | 0.00134

N=C(Nc1ccccc1)Nc1ccccc1
solubility (mole fraction)
Conditions | 273.15 K | 275.65 K | 278.15 K | 280.65 K | 283.15 K | 285.65 K
in acetonitrile | 0.00811 | 0.00911 | 0.0103 | 0.011 | 0.012 | 0.0131
in ethanol | 0.0139 | 0.0152 | 0.017 | 0.0191 | 0.0192 | 0.0214
in isobutanol | 0.0128 | 0.0138 | 0.0142 | 0.0166 | 0.0177 | 0.0183
in n-propanol | 0.0152 | 0.0171 | 0.0181 | 0.021 | 0.0215 | 0.0241
in toluene | 0.00134 | 0.00149 | 0.00178 | 0.00189 | 0.00219 | 0.0024
